Measured values: patent publication US12440493B2, “Combination therapy for treating cancer comprising substituted piperazines” (Eli Lilly and Company, priority 2020, dated 2025)
Several values for one entry are separate records, joined by “and”; a condition that tells them apart may be missing. Equal entries are not always repeated.

Experiments:
[1] = tested on: IDH1(R132H) primary human AML cells; assay: AML cell differentiation in blood (flow cytometry, % hCD33+hCD11b+ of hCD45+ cells), human AML PDx models in NSG mice; type: in vivo; conditions: for AML cell differentiation (% hCD33 + hCD11b+ (of hCD45+ cells)): 1 mg/kg Azacitidine, (QDx5, rest2)X2, 14 days off, each value one animal, 1 mg/kg
Experimental: (§1) Compounds and Formulation. For in vivo studies, each test article is prepared at an appropriate concentration with vehicle. […] Compound A is prepared fresh at the appropriate concentrations with vehicle every 7 days and stored at 4° C. between doses. […] Cytarabine is prepared fresh weekly by dilution with sterile saline from stock solution of Cytarabine (injection 20 mg/mL, (Pfizer injectables')). Azacitidine (Sigma, Lot #MKBR7212) is formulated in sterile water and is prepared fresh daily immediately before dosing. In vivo human AML PDx models. […] Two models are used in the studies: […] As needed, splenocytes from tumor-bearing mice are used to propagate and expand the models, as described. Each test article is prepared as described above at an appropriate concentration with vehicle to give animals the doses tested in this study at a dosing volume of 10 μL/gram body weight. Mice receiving Compound A (PO, QD) are treated at the indicated doses for the duration of the study. The combination agents are dosed as follows: […] Treated mice are assessed in comparison to vehicle treated and naïve (non-tumor bearing) control mice. Body weight is recorded twice per week. […] AML PDx model propagation. […] Spleens are processed and splenocytes isolated as described below. Two hundred μL per subject of the splenocyte prep is injected IV (intravenous, tail vein) into recipient NSG mice. […] Once engraftment is confirmed, the mice are monitored biweekly until ready to be put on study. […] Submandibular blood is collected. Spleen/Splenocyte Processing and Prep. After excision, a spleen is weighed, and […] is placed in a standard sterile 15 mL polypropylene conical tube containing PBS, and placed on ice. […] The spleen is placed in ice cold sterile PBS in a 15 mL collection tube. The spleen is removed from the collection tube and placed in a 100 micron 50 mL conical tube cell strainer (BD Falcon #352360). The spleen is processed by gentle rubbing of the spleen tissue against the surface of the cell strainer with the end of a 5 mL syringe plunger in a circular motion. The surface of the strainer is rinsed with 10 mL room temperature sterile DPBS (HyClone SH30028) 3 times during the process. […] The cell pellet is collected by centrifugation (300×g) and washed three times with 30 mL sterile DPBS. The cells are counted and resuspended in DPBS at the desired implant concentration. Bone Marrow Collection. […] Flow cytometry analysis of human white cells. Submandibular blood samples from in vivo studies are collected. Fluor-conjugated antibody stains are added according to the manufacturer's instructions (anti-human CD33-PE (clone WM53, BD Cat #555450), anti-human CD14-APC (clone MφpP9, BD Cat #340436), anti-human CD15-V450 (clone HI98, BD Cat #561584), anti-human CD117-BV421 (clone YB5.B8, BD Cat #562434), anti-human […]7 (clone ICRF44, BD Cat #557754), anti-human […]7 (clone HI30, BD Cat #557748), and anti-human CD3-FITC (clone SK7, BD Cat #340542)). The samples are incubated for 30 minutes at room temperature, protected from light. After the incubation, 1.5 mL 1×BD Lyse/Fix (37° C., (BD #558049)) is added to each sample and incubated for 12 minutes at room temperature. The tubes are centrifuged at 300×g for 7 minutes. BD Lyse/Fix solution is aspirated and the cell pellet washed with stain/wash buffer 3 times (1 wash step consisted of: pellet resuspended in 3 mL stain/wash buffer, centrifuged at 300×g, aspirated wash). Fixed cells are then resuspended in 300 to 400 μL stain/wash buffer. Samples are analyzed on a Becton Dickinson FACSVerse Flow cytometer (Cat #651155 Serial #Z6511550447) using standard flow cytometry principles and techniques. Samples are analyzed on the same day as they are stained and fixed. Population gating and data analysis of percent population are performed in the FACSuite software on the FACSVerse cytometer. Percent population values from the data analysis are plotted in Graphpad Prism or in JMP13. […]

[2] = tested on: IDH1(R132H) primary human AML cells; assay: AML clearance in peripheral blood (flow cytometry, % hCD33+hCD45+ of total white cells), human AML PDx models in NSG mice; type: in vivo; conditions: for AML clearance (% hCD33 + hCD45+ (of total white cells)): 1 mg/kg Azacitidine, (QDx5, rest2)X2, 14 days off, each value one animal, 1 mg/kg
Experimental: as §1

2-HG production = assay: Plasma 2-HG inhibition (LC-MS metabolite analysis in plasma of AML PDx model); type: in vivo, human
[3] = tested on: IDH1(R132H) primary human AML cells; assay: Bone marrow AML clearance (flow cytometry), human AML PDx models in NSG mice; type: in vivo
Experimental: as §1

[4] = 1 mg/kg Azacitidine, IP, (QDx5, rest 2)x2 14 days off, each line one animal
[5] = 1 mg/kg Azacitidine, (QD × 5, rest 2)x2, 14 days off, each line one animal

## Nc1ncn([C@@H]2O[C@H](CO)[C@@H](O)[C@H]2O)c(=O)n1 [Azacitidine, reference compound]
[1]; Treatment day 2
  AML cell differentiation (% hCD33 + hCD11b+ (of hCD45+ cells)): 10.07% and 14.27% and 13.08% and 12.37% and 5.55% and 9.38% and 9.55%
[1]; Treatment day 15
  AML cell differentiation (% hCD33 + hCD11b+ (of hCD45+ cells)): 12.12% and 16.08% and 11.64% and 18.36% and 13.75% and 11.72% and 18.15%
[1]; Treatment day 28
  AML cell differentiation (% hCD33 + hCD11b+ (of hCD45+ cells)): 21.14% and 21.62% and 19.07% and 20.9% and 16.95% and 20.64% and 21.18%
[1]; Treatment day 43
  AML cell differentiation (% hCD33 + hCD11b+ (of hCD45+ cells)): 10.64% and 9.94% and 11.58% and 6.98% and 6.67% and 12.03% and 10.48%
[1]; Treatment day 58
  AML cell differentiation (% hCD33 + hCD11b+ (of hCD45+ cells)): 14.45% and 9.99% and 10.78% and 11.33% and 11.72% and 13.55%
[1]; Treatment day 77
  AML cell differentiation (% hCD33 + hCD11b+ (of hCD45+ cells)): 10.12% and 10.78% and 8.78% and 6.76% and 10.92% and 11.76%
[1]; Treatment day 98
  AML cell differentiation (% hCD33 + hCD11b+ (of hCD45+ cells)): 10.31% and 14.59% and 17.5% and 8.29% and 16.64%
[1]; Treatment day −19
  AML cell differentiation (% hCD33 + hCD11b+ (of hCD45+ cells)): 1.53% and 0% (2×) and 2.59% and 0.27% and 2.72% and 1.16%
[1]; day 43, group G: azacitidine (1 mg/kg), vehicle 15%
  % AML cell differentiation (treatment group value): 10%
[2]; Treatment day 2
  AML clearance (% hCD33 + hCD45+ (of total white cells)): 23.43% and 20.98% and 19.8% and 15.03% and 22.26% and 10.88% and 16.63%
[2]; Treatment day 15
  AML clearance (% hCD33 + hCD45+ (of total white cells)): 33.19% and 44.55% and 30.95% and 35.67% and 30.39% and 28.23% and 30.75%
[2]; Treatment day 28
  AML clearance (% hCD33 + hCD45+ (of total white cells)): 13.99% and 12.05% and 15.33% and 16.77% and 13.73% and 22.64% and 22.81%
[2]; Treatment day 43
  AML clearance (% hCD33 + hCD45+ (of total white cells)): 32.23% and 23.27% and 18.57% and 27.48% and 11.38% and 25.34% and 20.44%
[2]; Treatment day 58
  AML clearance (% hCD33 + hCD45+ (of total white cells)): 11.92% and 32.12% and 11.16% and 7.63% and 9.47% and 13.4%
[2]; Treatment day 77
  AML clearance (% hCD33 + hCD45+ (of total white cells)): 12.91% and 26.37% and 20.18% and 12.58% and 15.11% and 11.64%
[2]; Treatment day 98
  AML clearance (% hCD33 + hCD45+ (of total white cells)): 62.54% and 70.18% and 65.61% and 37.53% and 38.23%
[2]; Treatment day −19
  AML clearance (% hCD33 + hCD45+ (of total white cells)): 7.65% and 4.33% and 3.14% and 6.28% and 3.24% and 2.46% and 2.87%
[2]; day 43, group G: azacitidine (1 mg/kg), vehicle 71%
  % peripheral blood AML cells (treatment group value): 22%
2-HG production; [4]
  % Inhibition of 2-HG (plasma): 32.923% and 22.691% and 56.872% and 51.81% and 75.405% and 73.207% and 49.201%
  Naive Subtracted 2-HG (plasma): 4.603 µM and 5.305 µM and 2.959 µM and 3.307 µM and 1.688 µM and 1.838 µM and 3.486 µM
  Plasma 2-HG: 7.539 µM and 8.241 µM and 5.896 µM and 6.243 µM and 4.624 µM and 4.775 µM and 6.422 µM
2-HG production; group G: azacitidine (1 mg/kg), vehicle 100%
  % plasma 2-HG (treatment group value): 48%
[3]; [5]
  Bone Marrow AML Clearance: % hCD33 + hCD45+ (% of white cells): 49.81% and 60.61% and 72.4% and 43.12%
  Bone Marrow AML Clearance: % hCD45+ (% of white cells): 49.85% and 61% and 72.52% and 43.15%
[3]; group G: azacitidine (1 mg/kg), vehicle 94%
  % human AML cells in bone marrow (of white cells; lower = more clearance): 55%
